Assay results from the NIST ThermoML archive (doi:10.1021/acs.jced.9b00134).
Numbers after ± are expanded uncertainties.

Legend:
[1] = xn = mol fraction of the nth substance listed; details: 101.13 kPa, Liquid, x1 = 0.5; for mass density: Vibrating tube method; for electrical conductivity: Alternating current cell with electrodes; for viscosity: Concentric cylinders viscometry
[2] = refractive index (Na D-line) (dimensionless); xn = mol fraction of the nth substance listed; details: 101.13 kPa, Liquid, Standard Abbe refractometry, x1 = 0.5
[3] = 293.15 K, 101.13 kPa, Vibrating tube method

SMILES | mass density ([1]; 293 K) [kg/m3] | electrical conductivity ([1]; 298 K) [S/m] | viscosity ([1]; 298 K) [mPa·s] | mass density ([1]; 298 K) [kg/m3] | electrical conductivity ([1]; 303 K) [S/m] | viscosity ([1]; 303 K) [mPa·s] | mass density ([1]; 303 K) [kg/m3] | electrical conductivity ([1]; 308 K) [S/m] | viscosity ([1]; 308 K) [mPa·s] | mass density ([1]; 308 K) [kg/m3] | electrical conductivity ([1]; 313 K) [S/m] | viscosity ([1]; 313 K) [mPa·s] | mass density ([1]; 313 K) [kg/m3] | electrical conductivity ([1]; 318 K) [S/m] | viscosity ([1]; 318 K) [mPa·s] | mass density ([1]; 318 K) [kg/m3] | electrical conductivity ([1]; 323 K) [S/m] | viscosity ([1]; 323 K) [mPa·s] | mass density ([1]; 323 K) [kg/m3] | refractive index ([2]; 293 K) | also measured
C[N+](C)(C)Cc1ccccc1.[Cl-] [trimethylbenzylammonium chloride] + OCCO | 1123.7 ± 20 | 0.539 ± 0.11 | 137.3 ± 11 | 1118 ± 20 | 0.706 ± 0.14 | 96.5 ± 11 | 1111.2 ± 20 | 0.843 ± 0.17 | 54.6 ± 8.8 | 1105.1 ± 20 | 0.902 ± 0.18 | 28.9 ± 4.4 | 1098 ± 20 | 0.965 ± 0.19 | 20.7 ± 2 | 1091 ± 20 | 1.02 ± 0.2 | 14.2 ± 1.8 | 1085 ± 20 | 1.4806 ± 0.0009 | refractive index ([2]; 298 K): 1.4763 ± 0.0008; refractive index ([2]; 303 K): 1.4731 ± 0.0007; refractive index ([2]; 308 K): 1.4695 ± 0.0008; refractive index ([2]; 313 K): 1.4652 ± 0.0008; refractive index ([2]; 318 K): 1.4611 ± 0.0007; refractive index ([2]; 323 K): 1.4587 ± 0.0006
CCC(O)CO (stereo not given) [1,2-butanediol] |  |  |  |  |  |  |  |  |  |  |  |  |  |  |  |  |  |  |  |  | mass density ([3]; Liquid): 1000 ± 20 kg/m3
OCC(O)CO [glycerol] |  |  |  |  |  |  |  |  |  |  |  |  |  |  |  |  |  |  |  |  | mass density ([3]; Liquid): 1238 ± 20 kg/m3
OCCCCCCO [1,6-hexanediol] |  |  |  |  |  |  |  |  |  |  |  |  |  |  |  |  |  |  |  |  | mass density ([3]; Liquid): 947 ± 20 kg/m3
C[N+](C)(C)Cc1ccccc1.[Cl-] [trimethylbenzylammonium chloride] |  |  |  |  |  |  |  |  |  |  |  |  |  |  |  |  |  |  |  |  | mass density ([3]; Crystal): 1061 ± 20 kg/m3
O=C([O-])[O-].[Na+].[Na+] [sodium carbonate] |  |  |  |  |  |  |  |  |  |  |  |  |  |  |  |  |  |  |  |  | mass density ([3]; Crystal): 2516 ± 23 kg/m3
C[N+](C)(C)Cc1ccccc1.[Cl-] [trimethylbenzylammonium chloride] + OCCCCCCO | 1142.3 ± 20 | 0.0842 ± 0.017 | 298.3 ± 41 | 1132.6 ± 20 | 0.145 ± 0.029 | 143.6 ± 29 | 1126.2 ± 20 | 0.17 ± 0.034 | 72.9 ± 14 | 1119.7 ± 20 | 0.184 ± 0.037 | 38.7 ± 6.4 | 1113.4 ± 20 | 0.195 ± 0.039 | 23.5 ± 2.9 | 1107.1 ± 20 | 0.253 ± 0.051 | 16.8 ± 1.8 | 1100 ± 20 | 1.5143 ± 0.0007 | refractive index ([2]; 298 K): 1.5107 ± 0.0007; refractive index ([2]; 303 K): 1.5083 ± 0.0006; refractive index ([2]; 308 K): 1.5052 ± 0.0007; refractive index ([2]; 313 K): 1.5016 ± 0.0007; refractive index ([2]; 318 K): 1.4987 ± 0.0006; refractive index ([2]; 323 K): 1.4963 ± 0.0006
OCCO [1,2-ethanediol] |  |  |  |  |  |  |  |  |  |  |  |  |  |  |  |  |  |  |  |  | mass density ([3]; Liquid): 1105 ± 20 kg/m3
C[N+](C)(C)Cc1ccccc1.[Cl-] [trimethylbenzylammonium chloride] + CCC(O)CO | 1104 ± 20 | 0.194 ± 0.039 | 231.7 ± 27 | 1093 ± 20 | 0.312 ± 0.063 | 128.5 ± 22 | 1083 ± 20 | 0.382 ± 0.076 | 64.2 ± 12 | 1073 ± 20 | 0.437 ± 0.087 | 34.5 ± 5.5 | 1064 ± 20 | 0.465 ± 0.093 | 22.1 ± 2.2 | 1057 ± 20 | 0.532 ± 0.11 | 17.9 ± 1.2 | 1049 ± 20 | 1.4982 ± 0.0006 | refractive index ([2]; 298 K): 1.4956 ± 0.0007; refractive index ([2]; 303 K): 1.4921 ± 0.0007; refractive index ([2]; 308 K): 1.4892 ± 0.0007; refractive index ([2]; 313 K): 1.4851 ± 0.0007; refractive index ([2]; 318 K): 1.4823 ± 0.0007; refractive index ([2]; 323 K): 1.4781 ± 0.0008
C[N+](C)(C)Cc1ccccc1.[Cl-] [trimethylbenzylammonium chloride] + OCC(O)CO | 1170.3 ± 20 | 0.0688 ± 0.014 | 383.9 ± 59 | 1167.2 ± 20 | 0.115 ± 0.023 | 159.6 ± 40 | 1164.3 ± 20 | 0.123 ± 0.025 | 79.8 ± 14 | 1161.4 ± 20 | 0.126 ± 0.025 | 48.5 ± 6.5 | 1158.4 ± 20 | 0.123 ± 0.025 | 29.7 ± 4 | 1155 ± 20 | 0.178 ± 0.036 | 18.3 ± 3 | 1152.4 ± 20 | 1.5653 ± 0.0008 | refractive index ([2]; 298 K): 1.5612 ± 0.0007; refractive index ([2]; 303 K): 1.5587 ± 0.0007; refractive index ([2]; 308 K): 1.556 ± 0.0007; refractive index ([2]; 313 K): 1.5532 ± 0.0007; refractive index ([2]; 318 K): 1.5503 ± 0.0006; refractive index ([2]; 323 K): 1.5493 ± 0.0005
